Experimental data published in US20040074447A1, “Methods of reducing incidence of stillborn pigs by using progesterone receptor antagonists” (priority 2002, published 2004).
Where “and” joins values, the source holds several entries; their conditions need not be identical. Equal entries are not always repeated. Entries after “also recorded” stand apart in the source; their conditions may differ. Marks after values point to notes of the source that are not given here.

Assays:
[1] = relative to propranolol; cited from earlier work
sows in labor = details: 150 μg, sows in labor before birth of the first pig; cited from earlier work
[2] = test system: pregnant crossbred female swine; experiment: Example 2: induction of farrowing in pregnant gilts, oral CP161,258 (two doses or single dose) or intramuscular porcine relaxin; format: in vivo; details: for effects on time to birth of the first pig, number born alive, or stillborns: 1200 U porcine relaxin IM on day 113
Procedure: Animals. […] This BW was used to calculate the amount of test article to administer (T2 and T3).
Randomization of animals. Animals were ranked according to expected farrowing date and then randomly assigned to treatment within blocks of 4 animals each.
Test article administration. […] For treatment groups T2 and T3, test article was diluted (a suspension) to a concentration of 25 mg/ml in 50% propylene glycol and stored refrigerated (2-8° C.).
For treatment groups T2 and T3, animals were snared and test article was administered orally using a 60 ml syringe. […] One container of approximately 440 ml was mixed and used within each week of the 3 wk study. Each animal assigned to T2 or T3 also received approximately 30 ml of tap water to insure that test article was swallowed.
Porcine relaxin was diluted to a concentration of 1200 U/ml in sterile physiological saline on the first day of use. Diluted porcine relaxin was stored in a locked refrigerator and removed only when injections took place. Relaxin (1 ml-T4) was administered intramuscularly in the lower part of the ham of either leg with an 18-gauge, 1.5″ long needle attached to a 3 ml syringe.
Administration of test articles occurred between 7:30 am and 8:30 am on almost all days of the study.
Piglets. Response variables measured in this study were: hours from the 1st treatment to the birth of the 1st pig, number of piglets that were alive at birth (born alive), stillborn (normal appearance term piglet, but dead at time of birth), and mummies (smaller than littermates, decayed at birth). Animals were not processed (no iron shots, no clipping of needle teeth, no individual identification), but umbilical cords were clipped to […]. length if animals could not be euthanized within 2 days after birth.
Data/Analyses. […] Data were analyzed using a mixed model analysis with block as a random effect and treatment as a fixed effect (proc mixed, SAS).

[3] = T4: 1200 U pRelaxin intramuscular day 113, counted from (day 113), mean ± SD
[4] = T4: 1200 U pRelaxin intramuscular day 113, mean
[5] = Treatment 4: 1200 IU Relaxin intramuscular day 113, individual animals

## CC(C)NCC(O)COc1cccc2[nH]c3ccccc3c12 (centres unmarked) [carazolol]
[1]
  membrane stabilizing potential, less than that of propranolol: 13 fold

## CC(C)(C)NCC(O)c1cc(Cl)c(N)c(Cl)c1 (centres unmarked) [clenbuterol]
Sows in labor
  delay of parturition: up to 15 hr

## Porcine relaxin
[2]
  effects on time to birth of the first pig, number born alive, or stillborns: not effective
[2]; listed as porcine relaxin
  effects on time to birth of the first pig, number born alive, or stillborns: did not have beneficial effects
[2]; [3]
  Hr, Dose d 112 To 1st pig ± SD: 56 ± 26 (13) Hr
  Hr, Dose d 113 To 1st pig ± SD: 56 ± 26^d (13) Hr
[2]; [4]
  Piglet data: Born alive: 6.4 (12)
  Piglet data: Mummies: 0.3 (12)
  Piglet data: Stillborn: 1.6 (12)
[2]; T4 Relaxin, individual animals
  Reason (animals with incomplete data): Dystocia (born alive, stillborns, mummy count; also recorded: Dystocia-(born alive, stillborns, mummy count
[2]; [5]
  Born Alive: 6 (3×) and 3 and 8 and 4 (2×) and 9 (2×) and 1 and 14 and 7
  Hr, 1st treatment to 1st pig: 10.9 h and 25.3 h and 34.2 h and 47.4 h and 48.5 h and 49.2 h and 49.7 h and 51 h and 69.9 h and 74.9 h and 77.2 h and 82.4 h and 106.3 h
  Mummies: 2 and 0 (10×) and 1
  Still-born: 5 and 0 (2×) and 1 (4×) and 2 (5×)
